Source: patent US20080249088A1, “Topical Delivery of Antifungal Drugs” (priority 2007, published 2008)

Experiment: solubility in water
Type: physicochemical
Experimental: In the preferred embodiment, a 100 ml. mixture would be created by mixing 1 gram of butenafine with 5 ml. of benzyl alcohol at room temperature. This would then be dissolved into 85 ml. of ethanol, then 10 ml. of water would be added.

solubility in water: limited solubility
SMILES: CN(Cc1ccc(C(C)(C)C)cc1)Cc1cccc2ccccc12 [Butenafine, butenafine]
